Values of other authors, collected in patent US20150209404A1, “CELLULAR BLOOD MARKERS FOR EARLY DIAGNOSIS OF ALS AND FOR ALS PROGRESSION” (YEDA RESEARCH AND DEVELOPMENT CO. LTD., priority 2010, published 2015).

Settings: ALS patients; Copaxone given daily; both drugs effective in treating MS

glatiramer acetate [Copaxone]
outcome of treatment in ALS: failed and were even detrimental
